Consider eleven molecules from ChEMBL document CHEMBL1150684, “New cytotoxic lupane triterpenoids from the twigs of Coussarea paniculata” (J Nat Prod, 2003).

Values after ≈ are worked out from the molar mass of the structure shown.

Broadly, the IC50 is the concentration at which inhibition is half-maximal. Read a high IC50 as a need for much substance.

The test system of the assay is A2780. The assay is described as follows: Cytotoxicity against human A2780 cells. It counts as functional, cell-based.
Consider `C=C(C)[C@@H]1CC[C@]2(C)CC[C@]3(C)[C@H](CC[C@@H]4[C@@]5(COC(C)=O)CC[C@H](OC(C)=O)C(C)(C)[C@@H]5CC[C@]43C)[C@@H]12`, for which inhibition was half-maximal at 9.6 µg/mL (≈ 18.2 µM) (IC50).

For the molecule `C=C(C)[C@@H]1CC[C@]2(C)CC[C@]3(C)[C@H](CC[C@@H]4[C@@]5(C)CC[C@H](O)C(C)(C)[C@@H]5CC[C@]43C)[C@@H]12` [LUPEOL], the IC50 is ≥ 20 µg/mL.

In turn, `C=C(C)[C@@H]1CC[C@]2(C(=O)O)CC[C@]3(C)[C@H](CC[C@@H]4[C@@]5(C)CCCC(C)(C)[C@@H]5CC[C@]43C)[C@@H]12` displayed a 50% inhibitory concentration (IC50) of 17.4 µg/mL (≈ 39.5 µM).

`C=C(C)[C@@H]1CC[C@]2(C)CC[C@]3(C)[C@H](C[C@@H](O)[C@@H]4[C@]56CC[C@H](OC5=O)C(C)(C)[C@@H]6CC[C@]43C)[C@@H]12` showed a half-maximal inhibitory concentration (IC50) of 18 µg/mL (≈ 39.6 µM).

As for `C[C@H]1[C@H](C)CC[C@]2(C(=O)O)CC[C@]3(C)C(=CC[C@@H]4[C@@]5(C)CC[C@H](O)C(C)(C)[C@@H]5CC[C@]43C)[C@H]12` [URSOLIC ACID], the IC50 was ≥ 20 µg/mL.

On to `C=C(C)[C@@H]1CC[C@]2(C)CC[C@]3(C)[C@H](CC[C@@H]4[C@@]5(C)CC[C@H](OC(C)=O)C(C)(C)[C@@H]5CC[C@]43C)[C@@H]12` [LUPENYL ACETATE], for which the midpoint of inhibition, the IC50, lay at 16 µg/mL.

On to `C=C(C)[C@@H]1CC[C@]2(C(=O)O)CC[C@]3(C)[C@H](CC[C@@H]4[C@@]5(C)CC[C@H](O)C(C)(C)[C@@H]5CC[C@]43C)[C@@H]12` [BETULINIC ACID], for which the IC50 was ≥ 20 µg/mL.

Take `CC1(C)CC[C@]2(C(=O)O)CC[C@]3(C)C(=CC[C@@H]4[C@@]5(C)CC[C@H](O)C(C)(C)[C@@H]5CC[C@]43C)[C@@H]2C1` [OLEANOLIC_ACID]: the IC50 was ≥ 20 µg/mL.

With `C=C(C)[C@@H]1CC[C@]2(C=O)CC[C@]3(C)[C@H](CC[C@@H]4[C@@]5(C)CC[C@@H](O)C(C)(C)[C@@H]5CC[C@]43C)[C@@H]12`, the IC50 was ≥ 20 µg/mL.

For `C=C(C)[C@@H]1CC[C@]2(C(=O)O)CC[C@]3(C)[C@H](CC[C@@H]4[C@@]5(C)CC[C@@H](O)C(C)(C)[C@@H]5CC[C@]43C)[C@@H]12` [EPIBETULINIC ACID], the IC50 was ≥ 20 µg/mL.

`C=C(C)[C@@H]1CC[C@]2(COC(C)=O)CC[C@]3(C)[C@H](CC[C@@H]4[C@@]5(C)CC[C@H](OC(C)=O)C(C)(C)[C@@H]5CC[C@]43C)[C@@H]12` [BETULIN DIACETATE]: the 50% inhibitory concentration (IC50) is ≥ 20 µg/mL.
